In PubChem BioAssay AID192 (DTP/NCI, 2004):
Values joined by “and” are separate entries in the source; they are usually repeats but may differ in a detail not shown here. Equal entries are not always repeated. Inconclusive results and toxic doses are left out. The calls were made as follows: active = survival T/C of 150% or more; inactive = T/C below 125% in these data.

Test system: BDF1 mice, B16 melanoma ip, median survival T/C
Experiment: NCI In Vivo Anticancer Drug Screen. Data for tumor model B16 Melanoma (intraperitoneal) in B6D2F1 (BDF1) mice
Settings: endpoint: median survival time, higher = longer survival
In short: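 Survival or tumor size is measured after treatment of tumor-bearing mice and normalised to the vehicle-treated control group.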

[1] = dose: 25.0 mg/kg/injection, schedule: Q01DX009 (ip), vehicle: Klucel (hydroxypropylcellulose) (HPC)
[2] = dose: 50.0 mg/kg/injection, schedule: Q01DX009 (ip), vehicle: Klucel (hydroxypropylcellulose) (HPC)
[3] = dose: 100.0 mg/kg/injection, schedule: Q01DX009 (ip), vehicle: Klucel (hydroxypropylcellulose) (HPC)
[4] = dose: 6.25 mg/kg/injection, schedule: Q01DX009 (ip), vehicle: saline
[5] = dose: 50.0 mg/kg/injection, schedule: Q01DX009 (ip), vehicle: saline
[6] = dose: 100.0 mg/kg/injection, schedule: Q01DX009 (ip), vehicle: saline
[7] = dose: 12.5 mg/kg/injection, schedule: Q01DX009 (ip), vehicle: Klucel (hydroxypropylcellulose) (HPC)
[8] = dose: 6.25 mg/kg/injection, schedule: Q01DX009 (ip), vehicle: saline with Tween-80
[9] = dose: 12.5 mg/kg/injection, schedule: Q01DX009 (ip), vehicle: saline with Tween-80
[10] = dose: 25.0 mg/kg/injection, schedule: Q01DX009 (ip), vehicle: saline with Tween-80
[11] = dose: 4.0 mg/kg/injection, schedule: Q01DX009 (ip), vehicle: saline with Tween-80

Measured: T/C

CCN(C(=O)Nc1cccc(Cl)c1)c1ccccc1
inactive: dose: 100.0 mg/kg/injection, schedule: Q01DX009 (ip), vehicle: saline with Tween-80 102 % of control | dose: 200.0 mg/kg/injection, schedule: Q01DX009 (ip), vehicle: saline with Tween-80 100 % of control | dose: 400.0 mg/kg/injection, schedule: Q01DX009 (ip), vehicle: saline with Tween-80 110 % of control

CCC(C)C(C#N)(CCN(CC)CC)c1ccccc1 (centres undefined)
inactive: [1] 121 % of control | [2] 118 % of control | [3] 109 % of control

CC(N)Cc1ccccc1 (centres undefined)
inactive: dose: 3.12 mg/kg/injection, schedule: Q01DX009 (ip), vehicle: saline 105 % of control | [4] 100 % of control | dose: 12.5 mg/kg/injection, schedule: Q01DX009 (ip), vehicle: saline 105 % of control | dose: 25.0 mg/kg/injection, schedule: Q01DX009 (ip), vehicle: saline 97 % of control | [5] 97 % of control | [6] 95 % of control

CCOC(=O)C1C(=O)C(CN(CCCl)CCCl)C(=O)C(C(=O)OCC)C1c1ccc(O)cc1 (centres undefined)
active: [7] 158 % of control

C1CN2CCC1CC2
inactive: dose: 1.56 mg/kg/injection, schedule: Q01DX009 (ip), vehicle: saline with Tween-80 102 % of control | dose: 3.12 mg/kg/injection, schedule: Q01DX009 (ip), vehicle: saline with Tween-80 102 % of control | [8] 92 % of control and 99 % of control | [9] 86 % of control and 91 % of control | [10] 86 % of control and 91 % of control

CCCCCNC(=O)Nc1cccc(Cl)c1C
inactive: [8] 91 % of control | [9] 104 % of control | [10] 100 % of control | dose: 50.0 mg/kg/injection, schedule: Q01DX009 (ip), vehicle: saline with Tween-80 89 % of control and 103 % of control

Oc1ccc2ccc3[nH]cnc3c2c1
inactive: dose: 50.0 mg/kg/injection, schedule: Q04DX003 (ip), vehicle: Klucel (hydroxypropylcellulose) (HPC) 100 % of control | dose: 100.0 mg/kg/injection, schedule: Q04DX003 (ip), vehicle: Klucel (hydroxypropylcellulose) (HPC) 105 % of control

CCC1(C(C)Br)OC2=C(CC(C#N)(C#N)C(C#N)(C#N)C2)O1 (centres undefined)
inactive: dose: 75.0 mg/kg/injection, schedule: Q04DX003 (ip), vehicle: Klucel (hydroxypropylcellulose) (HPC) 87 % of control

OC(C#Cc1ccccc1)c1ccccc1 (centres undefined)
inactive: dose: 50.0 mg/kg/injection, schedule: Q04DX003 (ip), vehicle: saline with Tween-80 108 % of control | dose: 100.0 mg/kg/injection, schedule: Q04DX003 (ip), vehicle: saline with Tween-80 97 % of control | dose: 200.0 mg/kg/injection, schedule: Q04DX003 (ip), vehicle: saline with Tween-80 98 % of control

CCCCc1ccc2nc(NC(=O)OC)[nH]c2c1
inactive: [8] 106 % of control | [9] 112 % of control | [10] 115 % of control

O=C(/C(=C/c1ccccc1)CBr)c1ccccc1
inactive: dose: 0.13 mg/kg/injection, schedule: Q01DX009 (ip), vehicle: saline with Tween-80 89 % of control | dose: 0.25 mg/kg/injection, schedule: Q01DX009 (ip), vehicle: saline with Tween-80 100 % of control | dose: 0.5 mg/kg/injection, schedule: Q01DX009 (ip), vehicle: saline with Tween-80 86 % of control and 100 % of control | dose: 1.0 mg/kg/injection, schedule: Q01DX009 (ip), vehicle: saline with Tween-80 89 % of control and 92 % of control | dose: 2.0 mg/kg/injection, schedule: Q01DX009 (ip), vehicle: saline with Tween-80 89 % of control | [11] 89 % of control

C1=C(c2ccccc2)CCC1
inactive: [5] 97 % of control | [6] 88 % of control

O=C(O)CCCc1ccc(N(CCCl)CCCl)cc1
inactive: dose: 0.37 mg/kg/injection, schedule: Q01DX009 (ip), vehicle: Klucel (hydroxypropylcellulose) (HPC) 100 % of control | dose: 0.5 mg/kg/injection, schedule: Q01DX009 (ip), vehicle: Klucel (hydroxypropylcellulose) (HPC) 93 % of control and 104 % of control | dose: 1.0 mg/kg/injection, schedule: Q01DX009 (ip), vehicle: Klucel (hydroxypropylcellulose) (HPC) 101 % of control and 104 % of control and 117 % of control | dose: 1.5 mg/kg/injection, schedule: Q01DX009 (ip), vehicle: Klucel (hydroxypropylcellulose) (HPC) 88 % of control and 89 % of control | dose: 1.88 mg/kg/injection, schedule: Q01DX009 (ip), vehicle: Klucel (hydroxypropylcellulose) (HPC) 112 % of control | dose: 2.0 mg/kg/injection, schedule: Q01DX009 (ip), vehicle: Klucel (hydroxypropylcellulose) (HPC) 100 % of control and 107 % of control and 109 % of control | dose: 2.0 mg/kg/injection, schedule: Q01DX017 (ip), vehicle: saline 109 % of control | dose: 3.0 mg/kg/injection, schedule: Q01DX009 (ip), vehicle: Klucel (hydroxypropylcellulose) (HPC) 86 % of control and 87 % of control | dose: 3.13 mg/kg/injection, schedule: Q01DX009 (ip), vehicle: saline 100 % of control | dose: 3.75 mg/kg/injection, schedule: Q01DX009 (ip), vehicle: Klucel (hydroxypropylcellulose) (HPC) 110 % of control | dose: 4.0 mg/kg/injection, schedule: Q01DX009 (ip), vehicle: Klucel (hydroxypropylcellulose) (HPC) 108 % of control and 109 % of control and 118 % of control | dose: 4.0 mg/kg/injection, schedule: Q01DX009 (ip), vehicle: saline 104 % of control | dose: 4.0 mg/kg/injection, schedule: Q01DX017 (ip), vehicle: saline 121 % of control | dose: 6.0 mg/kg/injection, schedule: Q01DX009 (ip), vehicle: Klucel (hydroxypropylcellulose) (HPC) 89 % of control and 118 % of control | [4] 104 % of control | dose: 7.5 mg/kg/injection, schedule: Q01DX009 (ip), vehicle: Klucel (hydroxypropylcellulose) (HPC) 116 % of control | dose: 8.0 mg/kg/injection, schedule: Q01DX001 (ip), vehicle: saline 95 % of control | dose: 8.0 mg/kg/injection, schedule: Q01DX009 (ip), vehicle: Klucel (hydroxypropylcellulose) (HPC) 111 % of control and 120 % of control | dose: 8.0 mg/kg/injection, schedule: Q01DX009 (ip), vehicle: saline 119 % of control | dose: 8.0 mg/kg/injection, schedule: Q04DX003 (ip), vehicle: saline 122 % of control | dose: 12.0 mg/kg/injection, schedule: Q01DX009 (ip), vehicle: Klucel (hydroxypropylcellulose) (HPC) 100 % of control | dose: 16.0 mg/kg/injection, schedule: Q01DX001 (ip), vehicle: saline 118 % of control | dose: 16.0 mg/kg/injection, schedule: Q01DX009 (ip), vehicle: saline 121 % of control | dose: 16.0 mg/kg/injection, schedule: Q04DX003 (ip), vehicle: saline 122 % of control

C=C1C(=O)OCC1(C(=O)OCC)C(=O)OCC
inactive: [11] 109 % of control | dose: 8.0 mg/kg/injection, schedule: Q01DX009 (ip), vehicle: saline with Tween-80 97 % of control | dose: 16.0 mg/kg/injection, schedule: Q01DX009 (ip), vehicle: saline with Tween-80 89 % of control

CCCN(CCC)C(=O)c1ccncc1
inactive: [3] 93 % of control | dose: 400.0 mg/kg/injection, schedule: Q01DX009 (ip), vehicle: Klucel (hydroxypropylcellulose) (HPC) 95 % of control

C1CCC2OCCOCCOC3CCCCC3OCCOCCOC2C1 (centres undefined)
inactive: dose: 3.12 mg/kg/injection, schedule: Q01DX009 (ip), vehicle: Klucel (hydroxypropylcellulose) (HPC) 91 % of control and 95 % of control | dose: 6.25 mg/kg/injection, schedule: Q01DX009 (ip), vehicle: Klucel (hydroxypropylcellulose) (HPC) 95 % of control and 107 % of control | [7] 106 % of control and 111 % of control | [1] 108 % of control and 121 % of control | [2] 98 % of control

C/C=C1/C[C@@H](C)[C@@](C)(O)C(=O)OCC2=CCN3CC[C@@H](OC1=O)[C@@H]23
inactive: dose: 10.0 mg/kg/injection, schedule: Q01DX009 (ip), vehicle: saline 110 % of control | dose: 11.3 mg/kg/injection, schedule: Q01DX009 (ip), vehicle: saline 111 % of control | dose: 20.0 mg/kg/injection, schedule: Q01DX009 (ip), vehicle: saline 113 % of control | dose: 40.0 mg/kg/injection, schedule: Q01DX009 (ip), vehicle: saline 108 % of control | dose: 45.0 mg/kg/injection, schedule: Q01DX009 (ip), vehicle: saline 102 % of control | dose: 80.0 mg/kg/injection, schedule: Q01DX009 (ip), vehicle: saline 108 % of control | dose: 90.0 mg/kg/injection, schedule: Q01DX009 (ip), vehicle: saline 88 % of control
active: dose: 22.5 mg/kg/injection, schedule: Q01DX009 (ip), vehicle: saline 285 % of control

CCOc1ccc(N2CSC(=S)N(c3ccc(OCC)cc3)C2)cc1
inactive: [2] 99 % of control | [3] 94 % of control | dose: 200.0 mg/kg/injection, schedule: Q01DX009 (ip), vehicle: Klucel (hydroxypropylcellulose) (HPC) 88 % of control
